What was measured:
[1] = test system: Rattus norvegicus; test: Antidiabetic activity in Rattus norvegicus Wistar (rat) assessed as STZ-induced plasma glucose level at 20 mg/kg, po administered for 15 days by glucose oxidase method (reference value: 377.3 +/- 10.5 mg/dl); type: functional
[2] = test system: Rattus norvegicus; test: Effect on plasma glucose level in normal Rattus norvegicus Wistar (rat) at 20 mg/kg, po administered for 15 days by glucose oxidase method (reference value: 85.7 +/- 7.2 mg/dl); type: organism-based; set-up: dose 20 mg/kg, route oral; conditions: in vivo, 360 h
[3] = test system: Rattus norvegicus; test: Antidiabetic activity in Rattus norvegicus Wistar (rat) assessed as STZ-induced plasma glucose level at 10 mg/kg, po administered for 15 days by glucose oxidase method (reference value: 377.3 +/- 10.5 mg/dl); type: functional
[4] = test system: Rattus norvegicus; test: Antidiabetic activity in po dosed Rattus norvegicus Wistar (rat) assessed as decrease in STZ-induced plasma glucose level administered for 15 days by glucose oxidase method; type: functional, organism-based
[5] = test system: Rattus norvegicus; test: Antidiabetic activity in Rattus norvegicus Wistar (rat) assessed as STZ-induced plasma glucose level at 5 mg/kg, po administered for 15 days by glucose oxidase method (reference value: 377.3 +/- 10.5 mg/dl); type: functional

Compound | Activity [1] [mg/dL] | Activity [2] [mg/dL] | Activity [3] [mg/dL] | Activity [4] | Activity [5] [mg/dL]
C=C1C(=O)O[C@@H]2/C=C(\C)CC/C=C(\C)CC[C@@H]12 [COSTUNOLIDE] | 167 | 85.5 | 240.7 | Dose-dependent effect | 285.5
C=C1CC[C@H]2C(C)=CC[C@H]3C(=C)C(=O)O[C@@H]3[C@@H]12 [EREMANTHIN] | 188.76 | 95.57 | 265.27 | Dose-dependent effect | 308.41

— ChEMBL document CHEMBL3045971, “Normalizing effects of Costus speciosus rhizome crude extracts and its fractions on diabetic complications in STZ-induced diabetic rats” (Med Chem Res, 2011)
